From patent publication US20040225019A1, “Methods of preventing or treating motion sickness” (priority 2003, published 2004)
“Also recorded” adds a separate entry of the source.

What was measured:
motion sickness = test: Off-vertical rotation chair motion sickness test; type: in vivo, human; details: for Mean Time (chair time): ride 3 h after drug, placebo 7.2; for Mean Time (chair time) / Mean Motion Sickness Severity Score: n = 18; for Mean Motion Sickness Severity Score: end of chair ride, placebo 18.2
Source text: Motion sickness was simulated by rotation in a tilted chair, also known as off-vertical rotation (Knox, et al. (1994) Laryngoscope 104(8 Pt 1):935-9; Woodard, et al. (1993) Aviat. Space Environ. Med. 64(5):363-6; Mowrey and Clayson (1982) Lancet 1(8273):655-7; Graybiel and Miller (1970) Aero. Med. 41(4):407-10). Off-vertical rotation produces motion sickness symptoms in more than 90% of subjects tested and has a high test-retest reliability. No provocative head motions are required which minimizes subject fatigue and training. For each run, the chair was tilted to 15 degrees off vertical, and accelerated at 5 degrees/sec^2 to 17.5 revolutions per minute. […] The subject was restrained with a seat belt and shoulder harness. The subject's head was also secured to the headrest with a strap to prevent head movements. Opaque goggles were placed over the subject's eyes.
The degree of motion sickness was assessed in three different ways. For the first method, the subjects were instructed how to use a well-known ratio scaling method (Bock and Oman (1982) Aviat. Space Environ. Med. 53(8):773-7) and were given a familiarization run in the chair to experience the motion sickness symptoms. The subjects were instructed to rate the peak overall discomfort they experienced in the familiarization ride as a “10” and to remember this level. They were instructed to rate all other levels of discomfort relative to this level. For example, discomfort which was half as severe would be rated as a “5”. This method is similar other well-known methods (see, e.g., Stott, et al. (1989) Br. J. Clin. Pharma. 27(2):147-57).
The second method was symptom recording. Prior to the familiarization run the subjects were instructed about the different symptoms that might occur (drowsiness, epigastric awareness, and the like). The subjects were asked about these symptoms each minute during the rotation and logged on a scoring sheet (Miller and Graybiel (1970) Aero. Med. 41(4):407-10), which was a variant of the Pensacola Diagnostic Rating Scale. The symptoms were assigned points and from these points, five levels of severity were determined (frank sickness, severe malaise, moderate malaise A, moderate malaise B, slight malaise).
The third method used to assess motion sickness was to record the total number of minutes the subject rides in the chair before stopping (Woodard, et al. (1993) supra; Mowrey and Clayson (1982) supra).
The studies employed a double-blind, placebo controlled, crossover design. […] The placebo was a single lactose capsule. […] The medications were labeled only with the subject's name, identification number and sequence of administration (i.e., Run 1, Run 2, Run 3). […] Both the research team and subjects were unaware of the order of administration.
Prior to the ride, subjects received a briefing on the symptoms they might experience, how to report those symptoms and instructions on when to stop the test. After the familiarization ride the subjects were instructed to remember their peak overall discomfort as a “10” and to rate all future symptoms relative to that baseline.
The subjects rode in the chair once for each treatment (low dose, high dose, and placebo) with at least one week between rides. A one week interval between rides is sufficient to prevent habituation to the rotating stimulus (Kohl (1987) Aviat. Space Environ. Med. 58(2):125-31; Stott, et al (1989) supra).
Test medications were taken two hours after finishing breakfast. […] On the study day, the subjects came to the lab, performed the cognitive testing battery and were observed taking the test medication. The time of drug ingestion was documented and the subjects returned three hours after taking the medication to complete the cognitive testing battery and ride in the chair. Prior to entering the chair, subjects received a standardized test briefing. Every minute during the testing, subjects were quizzed for motion sickness symptoms and asked to rate their own symptoms on a ratio scale. […]

[1] = Cognitive assessment battery before and after drug and chair ride; type: in vivo, human; details: for Mean Reaction Time: n = 15
Source text: Test medications were taken two hours after finishing breakfast. […] On the study day, the subjects came to the lab, performed the cognitive testing battery and were observed taking the test medication. The time of drug ingestion was documented and the subjects returned three hours after taking the medication to complete the cognitive testing battery and ride in the chair. Prior to entering the chair, subjects received a standardized test briefing. Every minute during the testing, subjects were quizzed for motion sickness symptoms and asked to rate their own symptoms on a ratio scale. Testing continued until either 20 minutes elapsed, the subject requested testing stop, or severe nausea or vomiting was experienced (i.e., the subject reached a subjective 10 on their scale). Blood pressure, respiratory rate and pulse were measured before and after the chair ride using a Critikon DINAMAP® 1846-SX device.
A standard cognitive assessment battery (Dinges, et al. (1997) Sleep 20(4):267-7; Neri, et al. (1995) Aviat. Space Environ. Med 66(4):313-9; Richardson, et al. (1996) Sleep 19(9):718-26) used in studies of sleep deprivation (Jewett, et al. (1999) Sleep 22(2):171-9) was used which included both objective and subjective measures of performance and wakefulness. The overall battery takes 20 minutes to administer and has been used successfully on the Neurolab space shuttle mission to assess how sleep loss affected crewmembers.
The cognitive tests were performed three times for each chair ride. The first test served as a baseline, the second test was administered at the peak of drug effect and the last test was after the chair ride. In this design, the results of the second test reflect changes due to drug effect, while the results from the third test reflect a combination of drug effect and motion sickness effects.

[2] = Questionnaire about side effects after chair ride

- Mean Reaction Time ([1]; High Dose 12 mg, PostDrug): 281.5 ms
- Mean Reaction Time ([1]; High Dose 12 mg, PostRide): 298.4 ms
- Mean Reaction Time ([1]; High Dose 12 mg, PreDrug (baseline before drug)): 265.1 ms
- Karolinska sleepiness scores ([1]; High dose 12 mg, after chair rides, p<0.0001): higher sleepiness scores
- Reaction time (significance) ([1]; High dose 12 mg, after the chair rides, p=0.0002): significantly increased
- Mean Reaction Time ([1]; Low Dose 4 mg, PostDrug): 286.1 ms
- Mean Reaction Time ([1]; Low Dose 4 mg, PostRide): 295.2 ms
- Mean Reaction Time ([1]; Low Dose 4 mg, PreDrug (baseline before drug)): 271.2 ms
Compound: CN(C)CCC(c1ccc(Cl)cc1)c1ccccn1 (racemic) [chlorpheniramine]
- Mean Time (chair time) (motion sickness; High Dose 12 mg chlorpheniramine capsule): 11.7 min
- Mean Motion Sickness Severity Score (motion sickness; High Dose 12 mg): 12.4
- Motion sickness severity score at end of chair ride (significance) (motion sickness; High dose 12 mg versus placebo (p=0.0004) and low dose (p=0.01)): significantly less
- Increase of mean chair time versus placebo (motion sickness; High dose 12 mg, 7.2 to 11.7 minutes): 63%
- Effect on chair time versus placebo (significance) (motion sickness; High dose 12 mg, p=0.001): significantly increased chair time
- Mean Time (chair time) (motion sickness; Low Dose 4 mg chlorpheniramine capsule): 10.2 min
- Mean Motion Sickness Severity Score (motion sickness; Low Dose 4 mg): 16.4
- Subjects who increased chair time to the maximum (20 minutes) (motion sickness; of 18 subjects, rides stopped at 20 minutes): Three
- Performance in objective tests of addition, tracking and memory ([1]; 4 mg and 12 mg doses): does not affect performance; also recorded: not significantly affected
- Scores on the alert-sleepy mood scale ([1]; High dose 12 mg, p<0.0001): significantly changed toward the sleepy portion of the scale
- Scores on the clearheaded-groggy mood scale ([1]; High dose 12 mg, p<0.0001): significantly changed toward the groggy portion of the scale
- Most commonly reported toxicities ([2]; after chair rides, 18 subjects): drowsiness and dry mouth
- Tendency to report a side effect with drug versus placebo ([2]; chi-square analysis): did not reach statistical significance
